Experiments:
FABP-3 = target: T1, FABP-3 (Homo sapiens, UniProt P05413); test: FABP-3 ELISA inhibitory assay; format: biochemical
T1 construct: purchased Neovateinbio PT-452

FABP-5 = target: T2, FABP-5 (Homo sapiens, UniProt Q01469); test: FABP-5 ELISA inhibitory assay; format: biochemical
T2 construct: purchased Raybiotech 268-10276-1

MAGL = target: T3, MAGL (Homo sapiens, UniProt Q99685); test: MAGL inhibitory assay; format: biochemical
T3 construct: purchased Cayman 10007812
T3 sequence (Q99685 1-303): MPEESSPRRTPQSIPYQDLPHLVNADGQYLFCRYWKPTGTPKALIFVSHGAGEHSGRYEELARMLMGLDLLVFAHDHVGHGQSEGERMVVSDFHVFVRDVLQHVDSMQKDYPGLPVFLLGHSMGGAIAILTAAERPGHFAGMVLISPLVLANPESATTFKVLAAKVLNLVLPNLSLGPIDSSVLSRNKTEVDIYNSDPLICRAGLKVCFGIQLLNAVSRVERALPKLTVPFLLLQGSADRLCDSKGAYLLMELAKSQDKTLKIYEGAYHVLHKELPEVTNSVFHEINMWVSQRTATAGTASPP
Method: Each study was performed in duplicate and the results averaged.
The final concentration in each well was 10 μl of sample, 5.6 μM MAGL (Cayman Catalog #10007812) and 23.6 μM 2-Arachidonoyl Glycerol (Cayman catalog #62160).

HDAC 4 = HDAC 4 (Homo sapiens, UniProt P56524); test: HDAC 4 fluorogenic assay kit
Method: Test materials were stored at room temperature and stock solutions were prepared at 20 mg/ml in DMSO. Further dilutions were made in sterile distilled water immediately before being added to the reaction mixture containing a substrate, and the reaction was triggered by the addition of purified HDAC enzymes, Double distilled water was the negative control and trichostatin (1.5 ug/ml) was used as a positive control for validation of each study. The test procedure was as directed in the assay kits. The products of the reactions were measured by fluorometry at ex/em 350/450 nm using multi-well plate fluorometer Cytofluor 4000 (Applied Biosystem, Foster City, CA) or using SpectraMax i3× Multi-Mode Detection Platform from Molecular Devices (Sunnyvale, CA).
Statistical significance was assessed with a two-tail Student test. Deviations of ≤20% as compared to water control with p values below 0.05 were considered statistically significant.

FAAH = target: T4, FAAH (Homo sapiens, UniProt O00519); test: FAAH fluorescence-based inhibitory assay; format: biochemical
T4 sequence (O00519 1-579): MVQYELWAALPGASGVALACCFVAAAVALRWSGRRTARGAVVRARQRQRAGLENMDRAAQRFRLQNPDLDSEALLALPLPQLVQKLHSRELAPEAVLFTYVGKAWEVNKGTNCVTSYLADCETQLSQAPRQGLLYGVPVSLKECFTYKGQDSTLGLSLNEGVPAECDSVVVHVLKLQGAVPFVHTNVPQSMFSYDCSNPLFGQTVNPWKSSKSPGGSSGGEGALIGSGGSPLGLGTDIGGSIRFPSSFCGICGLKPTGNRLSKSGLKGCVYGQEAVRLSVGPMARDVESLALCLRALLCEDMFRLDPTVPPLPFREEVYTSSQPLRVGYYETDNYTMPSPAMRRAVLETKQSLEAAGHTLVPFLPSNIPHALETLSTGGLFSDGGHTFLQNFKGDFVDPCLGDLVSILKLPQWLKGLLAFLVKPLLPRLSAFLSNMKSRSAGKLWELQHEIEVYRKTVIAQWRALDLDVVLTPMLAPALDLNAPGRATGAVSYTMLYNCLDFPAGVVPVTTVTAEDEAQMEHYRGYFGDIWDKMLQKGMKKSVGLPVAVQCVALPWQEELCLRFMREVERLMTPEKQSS

Sequence of HDAC 4 (P56524 whole entry): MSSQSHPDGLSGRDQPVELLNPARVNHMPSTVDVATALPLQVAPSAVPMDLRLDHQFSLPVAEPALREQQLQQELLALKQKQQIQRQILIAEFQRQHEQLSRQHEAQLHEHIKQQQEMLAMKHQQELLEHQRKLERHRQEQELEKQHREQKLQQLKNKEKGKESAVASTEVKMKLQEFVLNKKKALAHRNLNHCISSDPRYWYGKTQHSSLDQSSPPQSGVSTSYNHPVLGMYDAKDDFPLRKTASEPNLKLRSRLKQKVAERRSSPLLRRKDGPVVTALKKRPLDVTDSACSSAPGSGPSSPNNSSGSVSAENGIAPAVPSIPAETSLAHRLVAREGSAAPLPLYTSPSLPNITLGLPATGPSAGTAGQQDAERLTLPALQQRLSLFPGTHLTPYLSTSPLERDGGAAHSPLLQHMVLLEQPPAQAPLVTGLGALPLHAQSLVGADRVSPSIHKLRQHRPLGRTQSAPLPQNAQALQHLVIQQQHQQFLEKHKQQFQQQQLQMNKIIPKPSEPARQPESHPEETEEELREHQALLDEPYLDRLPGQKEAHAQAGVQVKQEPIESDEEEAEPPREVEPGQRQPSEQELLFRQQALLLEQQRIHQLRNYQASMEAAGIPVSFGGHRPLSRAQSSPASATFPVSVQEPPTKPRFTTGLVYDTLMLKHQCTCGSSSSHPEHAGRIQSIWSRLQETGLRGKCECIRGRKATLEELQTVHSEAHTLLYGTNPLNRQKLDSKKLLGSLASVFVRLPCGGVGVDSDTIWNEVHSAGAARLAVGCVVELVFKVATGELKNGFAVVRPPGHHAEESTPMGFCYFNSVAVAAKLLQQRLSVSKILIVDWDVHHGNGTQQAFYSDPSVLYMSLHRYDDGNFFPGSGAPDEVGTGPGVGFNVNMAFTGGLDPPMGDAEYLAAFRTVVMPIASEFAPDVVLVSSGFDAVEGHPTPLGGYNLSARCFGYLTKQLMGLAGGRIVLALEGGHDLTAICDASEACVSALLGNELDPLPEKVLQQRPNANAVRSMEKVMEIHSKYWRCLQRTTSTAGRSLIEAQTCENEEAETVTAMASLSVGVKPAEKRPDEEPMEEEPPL
T1 sequence (P05413 whole entry): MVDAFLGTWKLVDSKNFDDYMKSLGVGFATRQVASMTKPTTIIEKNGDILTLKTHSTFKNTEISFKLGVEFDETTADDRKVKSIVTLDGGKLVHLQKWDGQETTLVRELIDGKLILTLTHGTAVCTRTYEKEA
T2 sequence (Q01469 whole entry): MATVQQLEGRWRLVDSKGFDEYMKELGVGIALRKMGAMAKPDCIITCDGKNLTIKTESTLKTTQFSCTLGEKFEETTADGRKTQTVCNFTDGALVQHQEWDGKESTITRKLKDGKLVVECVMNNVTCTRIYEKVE

calcium dilysinate [Ca dilysinate]
FABP-3 IC50 (FABP-3): 208.6 µg/mL | FABP-5 IC50 (FABP-5): 871.4 µg/mL | MAGL IC50 (MAGL): 856.0 µg/mL | HDAC 4 activity, % of water-treated controls (HDAC 4; 25 ug/ml): 109% | HDAC 4 activity, % of water-treated controls (HDAC 4; 50 ug/ml): 101% | HDAC 4 activity, % of water-treated controls (HDAC 4; 100 ug/ml): 107% | FAAH IC50 (FAAH): 445.1 µg/mL

Reference: patent US20260041620A1, “NOVEL AMINO ACID BASED SALTS, COMPOSITIONS AND METHODS FOR TREATING SKIN AND IMPROVING SKIN REJUVENATION AND LONGEVITY” (Sytheon Ltd, priority 2023, published 2026)
